Assay results: patent US12156862B2, “Medicaments for the treatment of vasoconstriction related diseases or disorders” (Sulfateq B.V., priority 2017, dated 2024)

Columns and labels:
α1A adrenoceptor = target: T1, α1A adrenoceptor (Homo sapiens, UniProt P35348); assay: Radiolabeled prazosin displacement binding assay in α1A adrenoceptor transgenic CHO cells
T1 construct: expressed in transfected cells; host or cells: CHO-K1
T1 sequence (P35348 1-466): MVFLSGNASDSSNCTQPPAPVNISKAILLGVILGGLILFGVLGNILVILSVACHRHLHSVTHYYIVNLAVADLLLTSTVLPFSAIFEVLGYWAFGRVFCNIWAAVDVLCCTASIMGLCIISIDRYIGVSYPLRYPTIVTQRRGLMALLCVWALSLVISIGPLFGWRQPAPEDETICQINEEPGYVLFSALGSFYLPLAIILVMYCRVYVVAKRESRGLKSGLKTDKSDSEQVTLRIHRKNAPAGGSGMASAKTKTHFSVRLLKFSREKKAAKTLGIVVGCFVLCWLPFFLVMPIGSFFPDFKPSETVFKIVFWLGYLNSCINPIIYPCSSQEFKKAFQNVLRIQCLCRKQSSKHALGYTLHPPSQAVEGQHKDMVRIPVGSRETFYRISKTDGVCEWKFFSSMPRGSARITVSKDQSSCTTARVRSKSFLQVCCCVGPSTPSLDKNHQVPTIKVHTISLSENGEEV
Text: We therefore explored whether SUL-150 could directly interact with the α1 adrenoceptor as a receptor antagonist.

[1] = target: T2, human α1 adrenoceptor subtype B (Homo sapiens, UniProt P35368); assay: Phenylephrine-induced intracellular calcium (FLIPR Calcium 6) in CHO cells, α1B; format: cell-based; settings: in words
T2 construct: expressed in transfected cells; host or cells: CHO-K1
T2 sequence (P35368 1-520): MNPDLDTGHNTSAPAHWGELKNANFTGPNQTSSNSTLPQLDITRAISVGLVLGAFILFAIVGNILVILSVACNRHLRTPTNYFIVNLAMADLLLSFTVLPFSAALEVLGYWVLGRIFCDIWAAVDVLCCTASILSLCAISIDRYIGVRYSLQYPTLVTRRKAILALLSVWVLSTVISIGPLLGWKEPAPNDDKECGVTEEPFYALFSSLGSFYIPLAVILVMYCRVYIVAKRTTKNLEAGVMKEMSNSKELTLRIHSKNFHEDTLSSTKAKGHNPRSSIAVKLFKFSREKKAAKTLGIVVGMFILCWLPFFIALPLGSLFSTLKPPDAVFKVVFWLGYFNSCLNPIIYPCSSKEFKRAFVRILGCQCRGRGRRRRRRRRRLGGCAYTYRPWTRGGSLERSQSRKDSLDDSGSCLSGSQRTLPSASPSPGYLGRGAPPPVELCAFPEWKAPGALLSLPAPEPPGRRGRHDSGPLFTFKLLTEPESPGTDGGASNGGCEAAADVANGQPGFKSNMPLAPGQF
Description: (§1) CHO-K1 cells were stably transfected with a plasmid containing human al-AR subtypes A, B and D in separate cell lines in DMEM-F12 medium with 10% FBS, 1% penicillin-streptomycin and 200 μg/mL Geneticin (G418, Invitrogen, Carlsbad, CA).
(§2) On the next day, CHO cells were treated with either vehicle (0.1% DMSO) or SUL-121 enantiomers for 30 min at 37° C. and stimulated with a 3-fold dilution series of PE (20 μM-100 pM). [Ca^2], was measured using the fluorescent FLIPR Calcium 6 assay kit (Molecular Devices) in immortalized CHO cells stably expressing the α1 adrenoceptor.
(§3) Initially, calcium responses induced by non-cumulative concentration series of phenylephrine were investigated using fluorescent measurements in α1A adrenoceptor-overexpressing CHO cells treated with SUL-150 and SUL-151 (FIG. 4). Fluorescent measurement data was processed and analyzed in SoftMax Pro 7 and expressed as % of baseline AUC with a 3-fold multiplier using an average of first 10 measurement points as baseline.

[2] = target: T3, human α1 adrenoceptor subtype A (Homo sapiens, UniProt P35348); assay: Phenylephrine-induced intracellular calcium (FLIPR Calcium 6) in CHO cells, α1A; format: cell-based
T3 construct: expressed in transfected cells; host or cells: CHO-K1
T3 sequence (P35348 1-466): T1 sequence (P35348 1-466)
Description: as §1, §2, §3

[3] = target: T4, human α1 adrenoceptor subtype D (Homo sapiens, UniProt P25100); assay: Phenylephrine-induced intracellular calcium (FLIPR Calcium 6) in CHO cells, α1D; format: cell-based; settings: in words
T4 construct: expressed in transfected cells; host or cells: CHO-K1
T4 sequence (P25100 1-572): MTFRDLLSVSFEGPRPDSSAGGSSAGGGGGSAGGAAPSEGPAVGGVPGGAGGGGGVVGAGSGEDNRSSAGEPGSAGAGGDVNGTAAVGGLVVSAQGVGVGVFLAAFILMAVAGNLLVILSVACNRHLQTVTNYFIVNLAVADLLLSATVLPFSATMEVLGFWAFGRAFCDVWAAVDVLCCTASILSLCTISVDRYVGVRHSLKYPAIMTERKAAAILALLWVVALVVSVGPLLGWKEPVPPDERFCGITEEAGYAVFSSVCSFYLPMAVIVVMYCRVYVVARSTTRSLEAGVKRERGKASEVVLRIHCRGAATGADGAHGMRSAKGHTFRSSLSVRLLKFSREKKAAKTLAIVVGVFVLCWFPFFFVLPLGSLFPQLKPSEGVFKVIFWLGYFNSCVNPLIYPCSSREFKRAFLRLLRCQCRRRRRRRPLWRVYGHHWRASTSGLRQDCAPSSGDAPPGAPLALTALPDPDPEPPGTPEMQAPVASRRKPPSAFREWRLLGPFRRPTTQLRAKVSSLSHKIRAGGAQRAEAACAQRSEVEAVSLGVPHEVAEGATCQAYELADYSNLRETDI
Description: as §1, §2, §3

α1 adrenoceptor = assay: Phenylephrine-induced constriction of isolated porcine intrarenal arteries (myography)
Description: Porcine kidneys were obtained from a local slaughterhouse (Kroon Vlees, Gotenburgweg 30, 9723 TM Groningen. The Netherlands) and transported on ice in normal physiological Krebs buffer containing 120 mM NaCl, 6 mM KCl, 2.5 mM CaCl2×2H2O, 1.2 mM MgCl2×6H2O, 1.2 mM NaH2PO4×H2O, 25 mM NaHCO3 and 11.4 mM D-(+)-Glucose monohydrate (all ingredients were purchased from Merck) in ultrapure water.
The renal artery tree was dissected from the kidney, cleaned of surrounding connective tissue and cut into equally-sized ring segments (2 mm in length). In some rings, endothelium denudation was performed by gentle rubbing of the intimal surface with a paper clip. Rings were mounted in organ baths as described previously (Buikema et al., 2000). Arterial rings were washed thoroughly by replacing Krebs buffer and allowed to equilibrate for a period of 60 min under 1.4 g of resting tension before they were assessed for viability by inducing 2 subsequent constrictions with KCl (60 mM). […] After washout and stabilization, rings were treated for 30 minutes by incubation with vehicle (0.1% DMSO), SUL-121, SUL-150 or SUL-151, followed by subsequent incubation with cumulative doses of phenylephrine.
Dose-dependent constriction responses to phenylephrine (10^−8M-10^−4M) were recorded in said isolated porcine intrarenal arteries. Buffer was warmed to 37° C. and aerated with 95% O2 and 5% CO2 before use.
Vascular constriction responses are expressed as percentage of final response to KCl. Data are expressed as mean±SEM. *p<0.05.
To explore the effects of the enantiomers of (6-hydroxy-2,5,7,8-tetramethylchroman-2-yl)(piperazin-1-yl)methanone (SUL-150 and SUL-151) on constriction of isolated porcine intrarenal arteries, cumulative dose response curves to the α1 adrenoceptor agonist phenylephrine (PE) were constructed in the presence and absence of SUL-150 and SUL-151.

Cc1c(C)c2c(c(C)c1O)CCC(C)(C(=O)N1CCNCC1)O2 (stereo not shown) [SUL-151, (6-hydroxy-2,5,7,8-tetramethylchroman-2-yl)(piperazin-1-yl)methanone]
concentrations at which [7-Methoxy-3H]-prazosin is displaced (α1A adrenoceptor): higher than 10 μM | effect on PE-induced calcium transients, α1 adrenoceptor subtype B [1]: did not affect calcium transients | logEC50 of phenylephrine-induced calcium influx, α1A ([2]; 10 μM test compound): −8.09 ± 0.10 | logEC50 of phenylephrine-induced calcium influx, α1A ([2]; 30 μM test compound): −8.09 ± 0.11 | logEC50 of phenylephrine-induced calcium influx, α1A ([2]; 100 μM test compound): −7.98 ± 0.10 | effect on PE-induced calcium transients, α1 adrenoceptor subtype A ([2]; in words): did not affect calcium transients | effect on PE-induced calcium transients, α1 adrenoceptor subtype D [3]: did not affect calcium transients | logEC50 of phenylephrine-induced constriction responses (α1 adrenoceptor; 10 μM test compound): −5.82 ± 0.05^ | logEC50 of phenylephrine-induced constriction responses (α1 adrenoceptor; 30 μM test compound): −5.89 ± 0.04 | logEC50 of phenylephrine-induced constriction responses (α1 adrenoceptor; 100 μM test compound): −5.77 ± 0.04^
